Consider four compounds from US20090306201A1, “SELECTIVE INHIBITORS FOR TRANSFERASES” (University of Medicine and Dentistry of New Jersey, priority 2006, published 2009).

Series [1] addresses T1, G9a (Homo sapiens, UniProt Q96KQ7).
T1 construct: made in house
T1 sequence (Q96KQ7 1-1210): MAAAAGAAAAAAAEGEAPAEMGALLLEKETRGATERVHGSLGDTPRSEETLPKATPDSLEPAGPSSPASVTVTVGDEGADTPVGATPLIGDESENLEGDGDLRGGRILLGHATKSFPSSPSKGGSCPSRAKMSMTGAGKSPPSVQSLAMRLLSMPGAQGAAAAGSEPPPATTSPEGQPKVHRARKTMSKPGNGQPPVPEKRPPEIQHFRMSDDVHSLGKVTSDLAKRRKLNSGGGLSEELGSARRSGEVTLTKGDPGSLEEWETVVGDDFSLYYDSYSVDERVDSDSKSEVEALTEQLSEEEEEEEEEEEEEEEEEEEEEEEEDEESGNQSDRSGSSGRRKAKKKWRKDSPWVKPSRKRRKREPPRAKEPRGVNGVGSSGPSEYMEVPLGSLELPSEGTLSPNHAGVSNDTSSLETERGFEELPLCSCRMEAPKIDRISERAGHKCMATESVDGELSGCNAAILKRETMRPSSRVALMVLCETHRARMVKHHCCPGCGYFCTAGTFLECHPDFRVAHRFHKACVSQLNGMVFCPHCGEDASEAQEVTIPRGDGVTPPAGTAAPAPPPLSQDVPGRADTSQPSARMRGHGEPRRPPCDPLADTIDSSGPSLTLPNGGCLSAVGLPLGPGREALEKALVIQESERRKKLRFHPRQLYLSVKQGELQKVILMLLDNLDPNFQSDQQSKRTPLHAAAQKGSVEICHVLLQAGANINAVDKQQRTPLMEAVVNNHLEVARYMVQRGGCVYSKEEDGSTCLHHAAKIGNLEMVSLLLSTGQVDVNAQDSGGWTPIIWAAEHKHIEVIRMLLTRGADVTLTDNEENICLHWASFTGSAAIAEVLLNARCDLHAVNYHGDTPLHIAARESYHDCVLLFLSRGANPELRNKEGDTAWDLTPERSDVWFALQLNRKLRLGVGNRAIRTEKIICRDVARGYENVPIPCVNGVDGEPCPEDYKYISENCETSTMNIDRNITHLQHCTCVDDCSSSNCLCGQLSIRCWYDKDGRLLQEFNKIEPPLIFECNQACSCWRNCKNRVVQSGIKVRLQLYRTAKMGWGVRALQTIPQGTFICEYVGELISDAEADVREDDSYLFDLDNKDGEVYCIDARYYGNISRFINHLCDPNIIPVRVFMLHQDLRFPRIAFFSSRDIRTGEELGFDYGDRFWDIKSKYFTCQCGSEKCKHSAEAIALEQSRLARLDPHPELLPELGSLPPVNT
As to the kind of experiment: HKMT-inhibitor (HMT) assay, G9a. The format is biochemical, Mammalian. Conditions: recombinant HKMT, [3H]SAM, histone octamers or oligonucleosomes, average of duplicate. The method, then:
(§1) Compounds were initially screened for their ability to inhibit the activity of various lysine methyltransferases in vitro using a biochemical HMT-assay. Mammalian HKMTs were produced and purified as recombinant affinity-tagged proteins using a bacterial or baculovirus expression system.
(§2) The HKMT-inhibitor assay was as follows: In a final reaction volume of 25 μl, 50-100 ng recombinant HKMT protein was incubated at 30° C. for 60 minutes in a reaction buffer containing 50 mM Tris-HCl, pH 8.5, 5 mM MgCl2, 4 mM DTT, 1 μM [^3H]-labeled S-adenosyl-L-methionine ([^3H]SAM, 82.0 Ci/mmol, 1.0 mCi/ml, Amersham Pharmacia Biotech) and 2 μg of substrate (histone octamers or oligonucleosomes). A constant HKMT protein concentration was tested against increasing amounts of compound dissolved in DMSO. As a control an HKMT-inhibitor assay was performed in the presence of 0.5 μl of DMSO (end concentration of DMSO in the reaction= 2%). The reaction was stopped by the addition of 6 μl 5×SDS sample buffer (60 mM Tris-HCl, pH 6.8, 25% glycerol, 2% SDS, 0.05% bromphenol blue, 14.4 mM 6-Mercaptoethanol), and the proteins were separated on a 12% SDS-polyacrylamide gel. Proteins were transferred onto an Immobilon-P membrane (Millipore) and visualized by Coomassie blue staining. The membrane was then sprayed with EN3HANCE (NEN) and exposed to Kodak XAR film overnight. […]

In series [2] the target is T2, SET7/9 (Homo sapiens, UniProt Q8WTS6).
T2 construct: made in house
T2 sequence (Q8WTS6 1-366): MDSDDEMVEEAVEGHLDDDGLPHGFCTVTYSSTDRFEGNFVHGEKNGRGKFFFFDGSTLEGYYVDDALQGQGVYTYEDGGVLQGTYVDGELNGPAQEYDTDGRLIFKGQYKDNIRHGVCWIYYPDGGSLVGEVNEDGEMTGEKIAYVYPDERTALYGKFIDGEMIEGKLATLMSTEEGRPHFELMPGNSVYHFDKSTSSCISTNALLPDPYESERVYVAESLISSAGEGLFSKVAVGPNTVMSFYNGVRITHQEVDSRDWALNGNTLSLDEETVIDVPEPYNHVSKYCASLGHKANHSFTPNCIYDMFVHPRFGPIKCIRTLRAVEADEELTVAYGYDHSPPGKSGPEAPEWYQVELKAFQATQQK
As to the kind of experiment: HKMT-inhibitor (HMT) assay, SET7/9. The class given is biochemical, Mammalian. Conditions: recombinant HKMT, [3H]SAM, histone octamers or oligonucleosomes, average of duplicate. Here is the method:
as §1, §2

For series [3], the target named is T3, EZH2 (Homo sapiens, UniProt Q15910).
T3 construct: made in house
As to the kind of experiment: HKMT-inhibitor (HMT) assay, EZH2. The class given is biochemical, Mammalian. Conditions: meaning of the pair not explained. The method, then: as §1
The HKMT-inhibitor assay was as follows: In a final reaction volume of 25 μl, 50-100 ng recombinant HKMT protein was incubated at 30° C. for 60 minutes in a reaction buffer containing 50 mM Tris-HCl, pH 8.5, 5 mM MgCl2, 4 mM DTT, 1 μM [^3H]-labeled S-adenosyl-L-methionine ([^3H]SAM, 82.0 Ci/mmol, 1.0 mCi/ml, Amersham Pharmacia Biotech) and 2 μg of substrate (histone octamers or oligonucleosomes). A constant HKMT protein concentration was tested against increasing amounts of compound dissolved in DMSO. As a control an HKMT-inhibitor assay was performed in the presence of 0.5 μl of DMSO (end concentration of DMSO in the reaction= 2%). The reaction was stopped by the addition of 6 μl 5×SDS sample buffer (60 mM Tris-HCl, pH 6.8, 25% glycerol, 2% SDS, 0.05% bromphenol blue, 14.4 mM 6-Mercaptoethanol), and the proteins were separated on a 12% SDS-polyacrylamide gel. Proteins were transferred onto an Immobilon-P membrane (Millipore) and visualized by Coomassie blue staining. The membrane was then sprayed with EN3HANCE (NEN) and exposed to Kodak XAR film overnight. Coomassie blue stained histone bands were cut from the membrane and subjected to scintillation counting. All assays were performed in duplicate and the average of two experiments was used for the calculation of IC50 values. Only compounds with IC50<10 μM were selected for further experiments.

Series [4] concerns the target T4, PRSET-7 (Homo sapiens, UniProt Q9NQR1).
T4 construct: made in house
T4 sequence (Q9NQR1 1-393): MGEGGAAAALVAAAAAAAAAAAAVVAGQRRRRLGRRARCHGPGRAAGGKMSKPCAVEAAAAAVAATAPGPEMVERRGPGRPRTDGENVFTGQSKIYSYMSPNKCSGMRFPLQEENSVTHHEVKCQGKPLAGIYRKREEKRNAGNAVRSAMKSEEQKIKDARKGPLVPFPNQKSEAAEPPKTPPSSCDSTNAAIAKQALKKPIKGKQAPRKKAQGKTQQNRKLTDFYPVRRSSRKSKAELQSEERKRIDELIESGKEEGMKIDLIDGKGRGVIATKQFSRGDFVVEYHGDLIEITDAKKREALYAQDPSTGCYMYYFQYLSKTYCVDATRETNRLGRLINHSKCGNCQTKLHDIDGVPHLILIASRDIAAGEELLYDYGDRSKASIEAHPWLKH
As to the kind of experiment: HKMT-inhibitor (HMT) assay, PRSET-7. The format is biochemical, Mammalian. Conditions: recombinant HKMT, [3H]SAM, histone octamers or oligonucleosomes, average of duplicate. The method, then: as §1, §2

For series [5], the system named is global histone H4 lysine 20 monomethylation (H4K20me1). As to the kind of experiment: Global histone lysine methylation pattern in treated cells, immunoblot, H4K20me1. The class given is cell-based. Conditions: HeLa cells, acid-extracted histones, immunoblotting. Here is the method: (§3) Compounds that show low IC50 values for specific inhibition of single HKMTs were pre-selected for cell culture based toxicity and growth inhibition. HeLa cells were seeded in a concentration of 1×10^5 cell/ml in Dulbecco's modified Eagle medium supplemented with 10% Bovine serum, 2 mM glutamine, and penicillin-streptomycin solution. After 24 hours, the medium was supplemented with various compound concentrations. After an additional 48 hours, cells were harvested. Viable cells were stained with Trypan-Blue and counted. Based on the number of living cells treated with a compound in comparison to the cell number of cells treated with DMSO, a toxicity index was calculated for each compound.
(§4) Compounds with a low toxicity index were used for cell viability tests (FIG. 3). The cells harvested from this cell viability test were analyzed using two techniques. In the first technique, living cells were counted as described above and growth curves plotted for cells treated with DMSO or a given compound. (FIG. 4). In the second technique, histones were isolated from cells upon treatment of compounds, and their effect on global histone lysine methylation patterns was analyzed. Harvested cells were subjected to an acid extraction procedure for histones. […] Histones were resolved by SDS-PAGE, transferred to nitrocellulose, and analyzed by immunoblotting using histone-modification-state specific antibodies.
(In western blotting, separated proteins are transferred to a membrane and probed.)

Series [6] concerns H3K27me3. As to the kind of experiment: Global histone lysine methylation pattern in treated cells, immunoblot, other marks (H3K27me3). The class given is cell-based. To be noted: HeLa cells, acid-extracted histones, immunoblotting. The method, then: as §3, §4
The mark [7] stands for this setting: first of two values printed as x/y, read-out: IC50 EZH2 (first value of cell).
Setting [8] is: second of two values printed as x/y, read-out: IC50 EZH2 (second value of cell).

Where a name gives a salt, the structure may show the parent alone. Read-outs that look alike come from different tables or passages of the source. Where only a bound is given, the exact number is not on record here.

T3 sequence (Q15910 whole entry, species assumed): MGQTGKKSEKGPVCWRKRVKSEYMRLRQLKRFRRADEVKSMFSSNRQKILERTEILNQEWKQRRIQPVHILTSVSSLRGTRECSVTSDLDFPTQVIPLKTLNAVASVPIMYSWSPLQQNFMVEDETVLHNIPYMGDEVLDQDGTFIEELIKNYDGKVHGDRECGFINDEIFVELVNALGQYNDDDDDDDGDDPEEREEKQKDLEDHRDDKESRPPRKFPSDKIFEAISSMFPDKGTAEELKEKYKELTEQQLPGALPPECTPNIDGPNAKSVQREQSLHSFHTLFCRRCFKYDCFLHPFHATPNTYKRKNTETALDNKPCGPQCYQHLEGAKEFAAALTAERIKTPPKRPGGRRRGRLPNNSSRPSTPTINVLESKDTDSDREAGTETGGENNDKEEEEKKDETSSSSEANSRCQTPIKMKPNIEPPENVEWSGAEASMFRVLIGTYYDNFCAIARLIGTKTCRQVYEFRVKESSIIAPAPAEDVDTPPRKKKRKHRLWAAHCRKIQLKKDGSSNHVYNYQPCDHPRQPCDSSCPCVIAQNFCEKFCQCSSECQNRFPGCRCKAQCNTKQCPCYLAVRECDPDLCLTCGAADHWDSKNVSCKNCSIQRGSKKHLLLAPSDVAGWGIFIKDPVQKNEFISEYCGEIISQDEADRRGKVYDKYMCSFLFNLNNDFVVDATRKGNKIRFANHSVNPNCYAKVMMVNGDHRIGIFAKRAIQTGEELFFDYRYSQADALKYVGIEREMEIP
T3 sequence (O75530 whole entry partner, species assumed): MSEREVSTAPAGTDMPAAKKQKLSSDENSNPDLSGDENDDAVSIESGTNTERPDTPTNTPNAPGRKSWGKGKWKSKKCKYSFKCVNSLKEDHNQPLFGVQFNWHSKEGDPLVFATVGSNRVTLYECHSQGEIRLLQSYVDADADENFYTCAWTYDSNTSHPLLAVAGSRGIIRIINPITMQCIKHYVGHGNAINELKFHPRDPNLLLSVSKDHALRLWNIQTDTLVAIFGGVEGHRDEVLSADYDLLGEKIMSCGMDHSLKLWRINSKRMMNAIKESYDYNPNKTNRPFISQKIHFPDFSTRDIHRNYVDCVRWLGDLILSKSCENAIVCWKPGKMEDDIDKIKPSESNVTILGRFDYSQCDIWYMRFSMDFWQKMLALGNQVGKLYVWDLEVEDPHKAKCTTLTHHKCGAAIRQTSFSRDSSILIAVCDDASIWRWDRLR
T3 sequence (Q15022 whole entry partner, species assumed): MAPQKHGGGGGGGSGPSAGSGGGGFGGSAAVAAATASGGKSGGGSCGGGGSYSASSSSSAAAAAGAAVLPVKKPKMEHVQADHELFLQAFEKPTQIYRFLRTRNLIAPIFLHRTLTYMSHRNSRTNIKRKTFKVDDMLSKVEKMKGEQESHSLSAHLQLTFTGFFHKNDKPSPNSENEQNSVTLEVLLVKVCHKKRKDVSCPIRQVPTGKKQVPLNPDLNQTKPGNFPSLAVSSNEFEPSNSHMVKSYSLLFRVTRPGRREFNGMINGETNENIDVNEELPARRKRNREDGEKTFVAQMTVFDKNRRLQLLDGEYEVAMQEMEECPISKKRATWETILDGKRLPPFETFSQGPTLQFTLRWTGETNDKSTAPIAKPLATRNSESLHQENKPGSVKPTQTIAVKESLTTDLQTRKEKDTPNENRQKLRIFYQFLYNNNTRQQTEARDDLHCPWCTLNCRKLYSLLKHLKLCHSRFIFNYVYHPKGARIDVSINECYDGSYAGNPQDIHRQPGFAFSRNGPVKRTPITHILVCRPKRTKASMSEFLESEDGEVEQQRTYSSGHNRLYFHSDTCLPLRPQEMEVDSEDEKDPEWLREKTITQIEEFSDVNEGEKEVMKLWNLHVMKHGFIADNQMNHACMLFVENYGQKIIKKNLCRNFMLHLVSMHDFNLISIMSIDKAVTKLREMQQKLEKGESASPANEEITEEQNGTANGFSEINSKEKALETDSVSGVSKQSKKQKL

`Nc1ccc2c(O)cc(C(=O)O)cc2c1` (as salt: hydrochloride) [Compound 1a, 7-amino-4-hydroxy-2-naphthoic acid]: the melting point is > 250 °C (dec.).

Take `CCOC(=O)c1cc2c3c(cccc3c1)NC(=O)O2` [Compound 6, ethyl 2,3-dihydro-2-oxonaphtho[1,8-de][1,3]oxazine-8-carboxylate]: the melting point was > 250 °C (dec.).

On to `Nc1cc(S(=O)(=O)O)cc2cc(S(=O)(=O)O)cc(O)c12` [H-acid], for which the IC50 in series [1] was above 500 µM; in series [2], above 1380 µM; in series [3] (setting [7]) it was 3 µM; in series [3] (setting [8]) it was above 1000 µM; in series [4], 3.8 µM.

As to `Cc1cc(O)c(C(C)C)cc1C1(c2cc(C(C)C)c(O)cc2C)OC(=O)c2ccccc21` [Thymolphthalein, thymolphthalein], the 50% inhibitory concentration (IC50) in series [1] is above 1450 µM; in series [2], above 1450 µM; in series [3] (setting [7]) it was 25 µM; in series [3] (setting [8]), 400 µM; in series [4], 9 µM. For the same compound, the “global histone H4 lysine 20 monomethylation (H4K20me1)” value in series [5] is “reproducible reduction”. Moreover, in series [6], the “other histone methylation marks (e.g. H3K27me3)” value is given as “not affected”.

Broadly, the melting point is the temperature of the solid-liquid transition. A word on the IC50: it is the concentration at which inhibition is half-maximal.
